# Results taken from patent US20250135016A1, “MOLECULAR LOGIC GATES FOR CONTROLLED MATERIAL DEGRADATION” (University of Washington, priority 2016, published 2025).
# Where “and” joins values, the source holds several entries; their conditions need not be identical. Equal entries are not always repeated. Where two headings read alike, the source gives them in different places.
# Columns and labels:
# [1] = In situ oscillatory rheology of hydrogel formation with pretreated E∧P crosslinker; format: physicochemical
# Description: Reaction products were characterized using matrix-assisted laser desorption/ionization time-of-flight mass spectrometry (MALDI-TOF). […] To further investigate, the enzyme AND photo linker (E∧P) was pretreated with different combinations of enzyme and light, added to a stoichiometrically defined amount of PEG-tetraBCN, and characterized by in situ oscillatory rheology to monitor evolution of material properties.
# Oscillatory rheology was performed on an Anton Paar MCR301 rheometer equipped with a cone and plate geometry (25 mm diameter, 1° cone) at 25° C. and 25 Hz with a 1% strain. A solution of PEG-tetraBCN (3 mM, Method S22) and the E∧P crosslinker (6 mM, Method S12) in MMP buffer was reacted in situ, while G′ and G″ were measured as a function of time over the course of two hours. Peptide crosslinkers were pretreated with MMP and/or light as described in Method S24 in experimental triplicate. Hydrogels with similar stiffnesses formed when the E∧P crosslinker was untreated (G′=1660±170), exposed to just light (G′=1580±130), or exposed to just enzyme (G′=1540±110).
# [2] = Multi-logic hydrogel treatment and confocal microscopy; format: physicochemical; conditions: three-region gel
# Description: Hydrogels were formed sandwiched between an azide-functional glass slide and a Rain-X®-treated glass slide separated by two 0.005″ thick silicone spacers (McMaster-Carr). A precursor solution containing PEG-tetraBCN-FAM (Method S22, 2 mM) and the P crosslinker (Method S7, 4 mM) was injected between the silicone spacers (0.005 inches) and reacted for one hour. Subsequently, a precursor solution of PEG-tetraBCN-Cyanine5 (Method S22, 2 mM) and the R∨P crosslinker (Method S10, 4 mM) was injected between the FAM functionalized region and a silicone spacer and reacted for one hour. This was repeated on the other side of the FAM functionalized region with PEG-tetraBCN-AF568 (Method S22, 2 mM) and R∧P crosslinker (Method S13, 4 mM). Hydrogels were equilibrated and stored in PBS. […]
# Hydrogels were imaged using fluorescent confocal microscopy. Three channels—one for each fluorophore—were simultaneously monitored. For visualization, fluorescence corresponding to AF568 (excitation 578 nm, emission 594-627 nm), FAM (excitation 515 nm, emission 520-569 nm), and Cyanine5 (excitation 646 nm, emission 663-675 nm) were false colored as red, green, and blue, respectively.
# [3] = tested on: hS5 bone marrow-derived stromal cells; experiment: Hydrogel-encapsulated cell release studies; format: cell-based, human
# Description: Four human bone marrow-derived stromal cell lines [hS5], including one non-fluorescent control and three each stably transfected to express a single fluorescent protein [mCherry, green fluorescent protein (GFP), or blue fluorescent protein (BFP)], were cultured at 37° C. in Roswell Park Memorial Institute medium 1640 (RPMI-1640, Corning) supplemented with 10% FBS and 1% PS.
# Hydrogels were formed sandwiched between an azide-functional glass slide and a Rain-X®-treated glass slide separated by two 0.005″ thick silicone spacers (McMaster-Carr). A precursor solution containing PEG-tetraBCN (Method S22, 2 mM), the P crosslinker (Method S7, 4 mM), and hS5-GFP^+ (40×10^6 cells mL^−1) was injected between the silicone spacers and reacted for one hour. Subsequently, a precursor solution of PEG-tetraBCN (2 mM), the R∨P crosslinker (Method S10, 4 mM), and hS5-BFP^+ (40×10^6 cells mL^−1) was injected between the hS5-GFP^+ encapsulated region and a silicone spacer. […]
# Following each degradative step, cells that remained encapsulated in the intact gel were imaged using fluorescent confocal microscopy. Three channels—one for each fluorescent protein—were simultaneously monitored. For visualization, fluorescence corresponding to mCherry (excitation 587 nm, emission 626-703 nm), GFP (excitation 489 nm, emission 499-570 nm), and BFP (excitation 405 nm, emission 413-494 nm) were false colored as red, green, and blue, respectively. […]
# Gels were degraded and the viability of the released cells was assessed. […]
# Cells released from the gels and stained with the Live/Dead® assay were imaged on a Nikon Eclipse TE2000-U microscope using filter cubes corresponding to both live (excitation 480/40 nm filter, emission 535/50 nm filter) and dead (excitation 560/20 nm filter, emission 630/60 nm filter) staining. Viability was determined for each treatment by standard image analysis. […]
# [4] = all eight input combinations of reductant, MMP enzyme and light; endpoint supernatant fluorescence
# [5] = Description: Azide functionalized glass slides were synthesized as reported in previous works. […] PEG3500-diazide (37.5 μL, 40 mM) was then added, and the resulting solution was rapidly mixed, centrifuged, and then pipetted (25 μL) onto the azide functionalized glass slide. The gels were allowed to gel to completion for 1 hr, then covered with a RainX treated glass slide, and PBS (1×) was added to swell and rinse the gel overnight at room temperature, protected from light. The following morning, two of the gels (gel 3 and 4) was exposed to 365 nm light at 20 mW/cm^2 for 10 minutes with a hatched square (100 μm) chrome photomask. Following the light treatment, gel 3 was returned to PBS (1×) and protected from light. Gels 2 and 4 were placed in a solution of Dithiothreitol (DTT, 1 mM) for 4 hours. Gels 2 and 4 were then transferred to PBS (1×) and protected from light for 30 mins. Gel 1 remained in PBS and protected from light the entire time. The resulting fluorescence of these gels were imaged using a confocal scanning microscope at 488 nm.
substance,measurement,setting,value
HCC(CH2)2CO-RGK(CO(CH2)3N3)GPQGIWGQGK(oNB-N3)RK(CO(CH2)3N3)—NH2 [E∧P],Final storage modulus G′,"[1]; E∧P linker pretreated with both enzyme and light, did not form a gel",200±30 Pa
same,Final storage modulus G′,[1]; E∧P linker pretreated with enzyme (MMP) only,1580±130 Pa and 1540±110 Pa
same,Final storage modulus G′,[1]; E∧P linker pretreated with light only,1540±110 Pa and 1580±130 Pa
same,Final storage modulus G′,"[1]; E∧P linker untreated, reacted with PEG-tetraBCN",1660±170 Pa
same,Final loss modulus G″,[1]; all samples,~50 Pa
N3-oNB-RGGRK(N3)—NH2 [P],Response to subsequent reducing treatment,"[2]; BME 0.25 mM, 45 minutes, after masked light",fully intact
same,Response to masked UV light,"[2]; λ=365 nm, 10 minute exposure, slitted photomask",degradation
same,Gel degradation for viability studies,"[3]; R gels BME 0.25 mM 45 minutes, P gels UV 10 minutes, E gels MMP-8 0.20 nM 60 minutes",complete hydrogel degradation
same,Response to subsequent reducing treatment,"[3]; cell-laden tri-color gel, BME 0.25 mM, 37° C., 45 minutes",fully intact
same,Response to masked UV light,"[3]; cell-laden tri-color gel, λ=365 nm, 10 minute exposure, photomask",degradation
same,Hydrogel degradation response,[4],degrading only when the programmed cue was present
FAM-GRCG-PL-GCGRK(CO(CH2)3N3)—NH2 [FAM-Photolabile-AND-Reducible Pendant],Gel fluorescence (FAM release),"[5]; Gel 1, control, PBS only",no visible loss in fluorescence
same,Gel fluorescence (FAM release),"[5]; Gel 2, DTT only (1 mM, 4 hours)",no visible loss in fluorescence
same,Gel fluorescence (FAM release),"[5]; Gel 3, photomasked light only (365 nm, 20 mW/cm^2, 10 minutes)",no visible loss in fluorescence
same,Gel fluorescence (FAM release),"[5]; Gel 4, photomasked light and DTT",release in only the exposed areas
